In patent EP0102195A2, “Substituted aza bicycloalkyl derivatives with dopamine antagonist activity” (BEECHAM GROUP PLC, priority 1982, dated 1984):

Key:
dog = experiment: Anti-emetic activity in the dog (apomorphine-induced vomiting); type: in vivo; conditions: for ED50: Canis lupus familiaris, sc, 30 minutes prior to apomorphine HCl 0.1 mg/kg subcutaneously, vomiting response
Method: Compounds were administered subcutaneously 30 minutes prior to administration of a standard dose of apomorphine HCl (0.1 mg/kg subcutaneously) and the vomiting response compared to that obtained when the same animals were dosed with apomorphine HC1 and vehicle only.

rats = experiment: Increase in intragastric pressure (gastric motility enhancing activity); type: in vivo; conditions: 0.5 mg/kg s.c.; conscious restrained rats; average height of pressure waves, 40 minutes post dose vs pre-dose, Student's t test
Method: Intragastric pressure changes were recorded from previously starved conscious but restrained rats using a saline filled catheter inserted into the lumen of the stomach via a permanent gastric fistula. The catheter was connected to a physiological pressure transducer and pressure changes recorded on a hot wire pen recorder. In each animal a pre-dose period of 40 minutes was allowed to obtain a measure of spontaneous activity. An index of activity was obtained by measuring the average height of pressure waves during 10 minute periods. Values for 4 such periods were obtained during assessment of spontaneous activity and for 40 minute period after administration of compound. Student's "t" test was applied to the difference in average values obtained for spontaneous and post compound activity.

Dopamine receptor = experiment: Inhibition of apomorphine induced climbing in the mouse (central dopamine receptor blocking activity); type: in vivo; conditions: apomorphine 1 mg/kg s.c.
Heidenhain pouch = Heidenhain pouch test (gastric motility enhancing activity); type: in vivo, Male Beagle dogs; conditions: Beagle dogs; for period of activity: Heidenhain pouch

Structure (SMILES): CNc1cccc(OC)c1C(=O)N[C@@H]1C[C@H]2CC[C@@H](C1)N2Cc1ccccc1 [Example 12, 2-Methylamino-6-methoxy-N-[3β-(8-benzyl-8-azabicyclo (3,2,1)octyl)]benzamide]
- anti-emetic activity (dog; dose of 0.01 mg/kg s.c., apomorphine HCl 0.1 mg/kg subcutaneously): active

Structure (SMILES): CCNc1ccc(S(=O)(=O)N(C)C)cc1C(=O)N[C@@H]1C[C@H]2CC[C@@H](C1)N2Cc1ccccc1 [Example 5, 5-Dimethylaminosulphonyl-2-ethylamino-N[3 ε'-(8' -benzyl-8' -azabicyclo'{3.2.1)octyl)]-benzamide]
- index of activity post administration (rats): significantly increased
- inhibition of apomorphine induced climbing (Dopamine receptor; dose of 10 mg/kg s.c.): inactive

Structure (SMILES): CN(C)c1ccc(S(=O)(=O)N(C)C)cc1C(=O)N[C@@H]1C[C@H]2CC[C@@H](C1)N2Cc1ccccc1 [Example 2, 2-Dimethylamino-5-dimethylaminosulphonyl-ls(3'6-(8'-benzyl-8'-azabicyclo{3.2.1]octyl)]-benzamide]
- motility of the pouch (activity) (Heidenhain pouch; dose of 0.5 mg/kg s.c.): active
- inhibition of apomorphine induced climbing (Dopamine receptor; dose of 10 mg/kg s.c.): inactive
- ED50 (dog): 0.1 mg/kg

Structure (SMILES): CNc1ccc(S(=O)(=O)N(C)C)cc1C(=O)N[C@@H]1C[C@H]2CC[C@@H](C1)N2Cc1ccccc1 [Example 3, 5-Dimethylaminosulphonyl-2-methylamino-N(3'β(8'-benzyl-8'-azabicyclo{3.2.1}octyl)]benzamide]
- period of activity (Heidenhain pouch): greater than 1 hour
- motility of the pouch (activity) (Heidenhain pouch; dose of 0.1 mg/kg s.c.): active
- index of activity post administration (rats): significantly increased
- inhibition of apomorphine induced climbing (Dopamine receptor; dose of 25 mg/kg s.c.): inactive

Structure (SMILES): CCOC(=O)N(C)c1ccc(S(=O)(=O)N(C)C)cc1C(=O)N[C@@H]1C[C@H]2CC[C@@H](C1)N2Cc1ccccc1 [Example 4, 5-Dimethylaminosulphonyl-2-(N-methyl-N-ethoxycarbonyl)amino-N [3'8-(8'-benzyl-8'-azabicyclo{3.2.1]octyl)] benzamide]
- inhibition of apomorphine induced climbing (Dopamine receptor; dose of 10 mg/kg s.c.): inactive

Structure (SMILES): CN(C)S(=O)(=O)c1ccc(NC2CC2)c(C(=O)N[C@@H]2C[C@H]3CC[C@@H](C2)N3Cc2ccccc2)c1 [Example 6]
- period of activity (Heidenhain pouch): greater than 1 hour
- motility of the pouch (activity) (Heidenhain pouch; dose of 0.5 mg/kg s.c.): active
- index of activity post administration (rats): significantly increased
- inhibition of apomorphine induced climbing (Dopamine receptor; dose of 10 mg/kg s.c.): inactive
- ED50 (dog): 0.5 mg/kg
